What was measured:
barnyardgrass [1] = test: Test Example 1: foliage treatment, upland pot test; assay type: in vivo, Echinochloa crus-galli L.; conditions: active ingredient 500 g/ha, observed 18th to 23rd day, 0 = non-treated, 100 = complete kill
Excerpt: (§1) Upland field soil was put into a 1/170,000 ha pot, and seed of various plants were sown. Then, when the plants reached predetermined leaf stages ((1) barnyardgrass: 1.3 to 2.8 leaf stages, (2) crabgrass: 1.0 to 2.8 leaf stages, (3) green foxtail: 1.3 to 2.6 leaf stages, (4) redroot pigweed: 0.1 to 1.2 leaf stages, (5) prickly sida: 0.1 to 1.2 leaf stages, (6) velvetleaf: 0.1 to 1.2 leaf stages, (7) tall morningglory: 0.1 to 1.5 leaf stages, (8) rice: 1.2 to 2.6 leaf stages, (9) wheat: 1.3 to 2.4 leaf stages, (10) corn, 2.1 to 3.2 leaf stages, (11) soybean: 0.1 to 0.4 leaf stage), a wettable powder or emulsifiable concentrate having the compound of the present invention formulated in accordance with a usual formulation method, was weighed so that the active ingredient would be a predetermined amount, and diluted with water in an amount of 500 L/ha. To the diluted solution, 0.1% (v/v) of agricultural spreader was added. The herbicide thus adjusted was applied by a small size sprayer for foliage treatment. On the 18th to 23rd days after the application of the herbicide, the growth of the respective plants was visually observed, and the herbicidal effects were evaluated by the growth controlling degrees (%) ranging from 0 (equivalent to the non-treated plot) to 100 (complete kill), whereby the results shown in Table 3, were obtained.

crabgrass [2] = test: Test Example 1: foliage treatment, upland pot test; assay type: in vivo, Digitaria sanguinalis L.; conditions: active ingredient 500 g/ha, observed 18th to 23rd day, 0 = non-treated, 100 = complete kill
Excerpt: as §1

green foxtail [3] = test: Test Example 1: foliage treatment, upland pot test; assay type: in vivo, Setaria viridis L.; conditions: active ingredient 500 g/ha, observed 18th to 23rd day, 0 = non-treated, 100 = complete kill
Excerpt: as §1

redroot pigweed [4] = test: Test Example 1: foliage treatment, upland pot test; assay type: in vivo, Amaranthus retroflexus L.; conditions: active ingredient 500 g/ha, observed 18th to 23rd day, 0 = non-treated, 100 = complete kill
Excerpt: as §1

prickly sida [5] = test: Test Example 1: foliage treatment, upland pot test; assay type: in vivo, Sida spinosa L.; conditions: active ingredient 500 g/ha, observed 18th to 23rd day, 0 = non-treated, 100 = complete kill
Excerpt: as §1

rice [6] = test: Test Example 1: foliage treatment, upland pot test; assay type: in vivo, Oryza sativa L.; conditions: crop, active ingredient 500 g/ha, observed 18th to 23rd day, 0 = non-treated, 100 = complete kill
Excerpt: as §1

corn [7] = test: Test Example 1: foliage treatment, upland pot test; assay type: in vivo, Zea mays L.; conditions: crop, active ingredient 500 g/ha, observed 18th to 23rd day, 0 = non-treated, 100 = complete kill
Excerpt: as §1

soybean [8] = test: Test Example 1: foliage treatment, upland pot test; assay type: in vivo, Glycine max Merr.; conditions: crop, active ingredient 500 g/ha, observed 18th to 23rd day, 0 = non-treated, 100 = complete kill
Excerpt: as §1

barnyardgrass [9] = test: Test Example 2: soil surface treatment, upland pot test; assay type: in vivo, Echinochloa crus-galli L.; conditions: active ingredient 500 g/ha, observed 20th to 28th day
Method in brief: (§2)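 In this pre-emergence upland pot test, a small sprayer delivered the diluted compound formulation (1,500 L/ha water) to the soil surface the day after seeding. Plants were then observed, and control was scored from 0 to 100% some 20–28 days after treatment.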

crabgrass [10] = test: as above; assay type: in vivo, Digitaria sanguinalis L.; conditions: active ingredient 500 g/ha, observed 20th to 28th day
Method in brief: as §2

green foxtail [11] = test: as above; assay type: in vivo, Setaria viridis L.; conditions: active ingredient 500 g/ha, observed 20th to 28th day
Method in brief: as §2

redroot pigweed [12] = test: as above; assay type: in vivo, Amaranthus retroflexus L.; conditions: active ingredient 500 g/ha, observed 20th to 28th day
Method in brief: as §2

prickly sida [13] = test: as above; assay type: in vivo, Sida spinosa L.; conditions: active ingredient 500 g/ha, observed 20th to 28th day
Method in brief: as §2

velvetleaf [14] = test: as above; assay type: in vivo, Abutilon theophrasti MEDIC.; conditions: active ingredient 500 g/ha, observed 20th to 28th day
Method in brief: as §2

rice [15] = test: as above; assay type: in vivo, Oryza sativa L.; conditions: active ingredient 500 g/ha, observed 20th to 28th day
Method in brief: as §2

corn [16] = test: as above; assay type: in vivo, Zea mays L.; conditions: active ingredient 500 g/ha, observed 20th to 28th day
Method in brief: as §2

soybean [17] = test: as above; assay type: in vivo, Glycine max Merr.; conditions: active ingredient 500 g/ha, observed 20th to 28th day
Method in brief: as §2

barnyardgrass [18] = test: Test Example 3: paddy pot test, application under submerged conditions; assay type: in vivo, Echinochloa crus-galli L.; conditions: submerged application at 0.5 leaf stage, visually observed 14 days after application, 0 = non-treated, 100 = complete kill
Method in brief: (§3)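 Visual rating of growth control (0% equals untreated, 100% complete kill) made 14 days after treatment. Compound, formulated as wettable powder or emulsifiable concentrate and diluted in water, was pipetted under submerged conditions at predetermined active-ingredient doses once weeds reached 0.5-leaf (barnyardgrass, bulrush) or primary-leaf (wapato, from tubers) stage. Pots of greenhouse paddy soil held 3–4 cm flooding.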

japanese bulrush = test: as above; assay type: in vivo, Scirpus juncoides; conditions: submerged application at 0.5 leaf stage, visually observed 14 days after application, 0 = non-treated, 100 = complete kill
Method in brief: as §3

japanese ribbon wapato = test: as above; assay type: in vivo, Sagittaria pygniaea; conditions: submerged application at primary leaf stage, visually observed 14 days after application, 0 = non-treated, 100 = complete kill
Method in brief: as §3

rice (var. Nihonbare) = test: Test Example 3: paddy pot test, transplanted rice; assay type: in vivo, Oryza sativa L.; conditions: applied 4th day after transplantation, visually observed 21st day after application, 0 = non-treated, 100 = complete kill
Method in brief: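 Visual crop-injury rating (0 = as untreated, 100 = complete kill, %) taken 21 days post-application. Treatment: formulated compound, water-diluted, pipetted into 3–4 cm flood water at a preset active-ingredient dose, 4 days after transplanting 2-leaf Nihonbare rice 3 cm deep in puddled paddy soil.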

velvetleaf [19] = test: Test Example 1: foliage treatment, upland pot test; assay type: in vivo, Abutilon theophrasti MEDIC.; conditions: active ingredient 500 g/ha, observed 18th to 23rd day, 0 = non-treated, 100 = complete kill
Excerpt: as §1

SMILES	Growth controlling degree (%) Barnyardgrass (barnyardgrass [1]) [%]	Growth controlling degree (%) Crabgrass (crabgrass [2]) [%]	Growth controlling degree (%) Green foxtail (green foxtail [3]) [%]	Growth controlling degree (%) Redroot pigweed (redroot pigweed [4]) [%]	Growth controlling degree (%) Prickly sida (prickly sida [5]) [%]	Growth controlling degree (%) Rice (rice [6]) [%]	Growth controlling degree (%) Corn (corn [7]) [%]	Growth controlling degree (%) Soybean (soybean [8]) [%]	Growth controlling degree (%) Barnyardgrass (barnyardgrass [9]) [%]	Growth controlling degree (%) Crabgrass (crabgrass [10]) [%]	Growth controlling degree (%) Green foxtail (green foxtail [11]) [%]	Growth controlling degree (%) Redroot pigweed (redroot pigweed [12]) [%]	Growth controlling degree (%) Prickly sida (prickly sida [13]) [%]	Growth controlling degree (%) Velvetleaf (velvetleaf [14]) [%]	Growth controlling degree (%) Rice (rice [15]) [%]	Growth controlling degree (%) Corn (corn [16]) [%]	Growth controlling degree (%) Soyabean (soybean [17]) [%]	Growth controlling degree (%) Barnyardgrass (barnyardgrass [18]; active ingredient 250 g/ha) [%]	Growth controlling degree (%) Japanese bulrush (japanese bulrush; active ingredient 250 g/ha) [%]	Growth controlling degree (%) Velvetleaf (velvetleaf [19]) [%]	other results
CC(C)C(c1cnccc1C(F)(F)F)N(C)C(=O)Cc1ccccc1[N+](=O)[O-] (stereo not shown) [I-39]	50	70	60	80	90	10	10	40	100	100	70	80	90	30	10	40	50	100	95		Growth controlling degree (%) Japanese ribbon wapato (japanese ribbon wapato; active ingredient 250 g/ha): 85%; Growth controlling degree (%) Rice (rice (var. Nihonbare); active ingredient 250 g/ha): 10%
CC(C)C(c1cnccc1Cl)N(C)C(=O)Cc1cccc(F)c1F (stereo not shown) [I-72]	0	70	10	60	60		40	20	80	70	60			0	0	0	0			85	Growth controlling degree (%) Barnyardgrass (barnyardgrass [18]; active ingredient 125 g/ha): 90%; Growth controlling degree (%) Japanese bulrush (japanese bulrush; active ingredient 125 g/ha): 70%; Growth controlling degree (%) Japanese ribbon wapato (japanese ribbon wapato; active ingredient 125 g/ha): 50%; Growth controlling degree (%) Rice (rice (var. Nihonbare); active ingredient 125 g/ha): 0%
CC(Oc1ccccc1)C(=O)N(C)C(c1cnccc1C(F)(F)F)C(C)C (stereo not shown) [I-119, N-methyl-N-[2-methyl-1-(4-trifluoromethylpyridin-3-yl)propyl]2-phenoxypropionamide]	60	40	50	50	70	20	10	60												10	Growth controlling degree (%) Barnyardgrass (barnyardgrass [18]; active ingredient 500 g/ha): 98%; Growth controlling degree (%) Japanese bulrush (japanese bulrush; active ingredient 500 g/ha): 100%; Growth controlling degree (%) Rice (rice (var. Nihonbare); active ingredient 500 g/ha): 20%
CC(C)C(c1cnccc1C(F)(F)F)N(C)C(=O)CC1CCCCC1 (stereo not shown) [I-164]	60	60	60		80	50	50	30	70	98	85	70	60	40	60	20	20	100	98	85	Growth controlling degree (%) Japanese ribbon wapato (japanese ribbon wapato; active ingredient 250 g/ha): 0%; Growth controlling degree (%) Rice (rice (var. Nihonbare); active ingredient 250 g/ha): 10%
CC(C)C(c1cnccc1C(F)(F)F)N(C)C(=O)COc1ccc(F)cc1 (stereo not shown) [I-241]	70	95	70		80	20	30	80	100	98	100	90	100	70	20	40	20	100	95	80	Growth controlling degree (%) Japanese ribbon wapato (japanese ribbon wapato; active ingredient 250 g/ha): 80%; Growth controlling degree (%) Rice (rice (var. Nihonbare); active ingredient 250 g/ha): 0%

Source: US20050239656A1, “Pyridine compounds or salts thereof and herbicides containing the same” (priority 2002, published 2005)
